Patent USRE47193E1, “Selectively substituted quinoline compounds” (EISAI R&D MANAGEMENT CO., LTD., priority 2013, dated 2019)
Where “and” joins values, the source holds several entries; their conditions need not be identical. Identical values can stand only once. Like-named read-outs stand apart in the source and are kept apart here.

Biological target: T1, TLR9 (Homo sapiens, UniProt Q9NR96)
T1 sequence (Q9NR96 26-1032): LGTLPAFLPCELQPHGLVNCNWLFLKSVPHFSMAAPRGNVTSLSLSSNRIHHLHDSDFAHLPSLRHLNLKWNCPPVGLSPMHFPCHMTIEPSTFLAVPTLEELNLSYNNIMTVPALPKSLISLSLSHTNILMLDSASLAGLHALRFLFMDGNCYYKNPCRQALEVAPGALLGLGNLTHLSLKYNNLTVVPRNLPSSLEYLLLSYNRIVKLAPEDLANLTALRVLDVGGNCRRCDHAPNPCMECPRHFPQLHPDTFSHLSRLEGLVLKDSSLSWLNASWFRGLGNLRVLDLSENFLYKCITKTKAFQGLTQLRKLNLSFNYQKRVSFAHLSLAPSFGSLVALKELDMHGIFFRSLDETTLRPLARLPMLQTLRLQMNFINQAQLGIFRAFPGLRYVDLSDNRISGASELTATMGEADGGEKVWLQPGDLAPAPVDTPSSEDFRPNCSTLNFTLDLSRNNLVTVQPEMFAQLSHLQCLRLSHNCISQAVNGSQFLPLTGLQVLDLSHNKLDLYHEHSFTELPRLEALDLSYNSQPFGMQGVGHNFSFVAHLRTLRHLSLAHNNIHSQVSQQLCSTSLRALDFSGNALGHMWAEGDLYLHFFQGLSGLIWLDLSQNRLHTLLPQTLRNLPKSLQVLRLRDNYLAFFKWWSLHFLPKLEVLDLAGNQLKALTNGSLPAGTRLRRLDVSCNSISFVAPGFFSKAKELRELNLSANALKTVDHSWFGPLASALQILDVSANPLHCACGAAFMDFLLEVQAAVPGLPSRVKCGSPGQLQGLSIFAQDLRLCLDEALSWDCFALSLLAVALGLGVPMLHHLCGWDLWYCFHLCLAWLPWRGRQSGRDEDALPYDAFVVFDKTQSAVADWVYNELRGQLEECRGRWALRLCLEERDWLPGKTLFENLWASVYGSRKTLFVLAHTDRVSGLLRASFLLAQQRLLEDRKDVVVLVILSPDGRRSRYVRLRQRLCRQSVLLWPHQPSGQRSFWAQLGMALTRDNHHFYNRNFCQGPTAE
Experiment: Subsequent human PBMC assay, DNA-mediated activation of TLR9, IL-6 and IFN-α
Assay type: cell-based
Procedure: Human PBMC Cell-Based Assay. Human peripheral blood mononuclear cells (PBMC) were isolated from freshly-drawn heparinized (10 USP units/ml, Hospira, Lakeforest, Ill.) healthy donor whole blood by density gradient (Histopaque® 1077, Sigma, Inc., St. Louis, Mo.). Briefly, 25 ml blood was diluted with 15 ml PBS (without Ca^2+, Mg^2+) in a 50 ml conical tube, and 12 ml Histopaque was underlaid using a spinal needle. Tubes were centrifuged for 45 minutes at 1200 rpm (350×g), and PBMC were collected from the buffy coat. Cells were then washed twice in PBS, and red blood cells were lysed by suspension in 5 ml ammonium chloride solution (1× Red Blood Cell Lysis Buffer, eBioscience) for 5 minutes at room temperature. After a final wash in PBS, PBMC were resuspended at a final concentration of 2×10^6/ml in RPMI-1640 media with L-glutamine (Invitrogen) and supplemented with 25 mM HEPES (Mediatech, Inc, Manassas Va.), 10% fetal bovine serum (HyClone, Logan, Utah), and Penicillin-Streptomycin-Glutamine (Mediatech) and plated at 100 ul/well (2×10^5 cells/well) in tissue culture treated 96-well plates (Falcon).
Antagonist compounds solubilized and serial diluted in 100% DMSO were added in triplicate to cells to yield a final concentration of 0.1% DMSO (v/v). Hydroxychloroquine (Acros Organics) solubilized and serial diluted in PBS was added in triplicate to cells. PBMC were incubated with antagonist compounds or HCQ for 30 minutes at 37° C., 5% CO2 before adding various TLR agonist reagents in 100 ul complete media per well as follows (final concentrations indicated): R848 (Resiquimod; GLSynthesis, Worcester, Mass.) at 1 uM for TLR7 and TLR8, LPS (Sigma) at 10 ng/ml for TLR4, and CpG-2216 (InvivoGen) at 5 ug/ml for TLR9. To prepare a TLR7/8 agonist that mimics RNA-containing auto-antibody immune complexes in lupus patients, a 26-mer RNA with a sequence derived from human U1 snRNA stem loop IV [(sequence: […]-[…] (SEQ ID NO: 2) with phosphorothioate backbone] was synthesized (Dharmacon, Inc., Lafayette, Colo.), which has been shown previously to be a potent TLR7 and TLR8 agonist. This RNA molecule was diluted to 2.5 μM in serum-free RPMI, and mouse anti-human single stranded DNA monoclonal antibody (MAB3034, Millipore, Inc., Billerica, Mass.), which also cross-reacts with RNA, was added at a 1:25 dilution or at 1 ug/ml. The resulting “RNA-Ig” stimulus was incubated at room temperature for 15-30 minutes before adding to cells. PBMC were incubated with the various TLR agonists for 20 hours at 37° C., 5% CO2. Cell culture supernatants were collected, and levels of various human cytokines were assessed as indicated by standard ELISA procedure according to the manufacturer's recommended protocol (BD Biosciences, Inc., San Diego, Calif.). In a subsequent assay (Table 6) the ability of ER-899742 to block stimulation of normal PBMC by various TLR7/8 ligands, but not DNA-mediated activation of TLR9, was examined. In this assay cells were plated at 1×10^5 cells/well in 100 ul in 96-well plates.

Compound `C[C@@H]1CN(c2ccc(C#N)c3ncccc23)C[C@H](C(=O)N[C@H]2CNC[C@H]2F)O1.Cl` [ER-899742, (2R,6R)-4-(8-cyanoquinolin-5-yl)-N-[(3S,4R)-4-fluoropyrrolidin-3-yl]-6-methylmorpholine-2-carboxamide hydrochloride] has an IC50 (IC50 IFN-α Ave., human PBMC, ligand ODN2006-DOTAP, average of donors) greater than 10 µM, an IC50 (IC50 IFN-α Ave., human PBMC, ligand ODN2216-Ig, average of donors) greater than 10 µM and an IC50 (IC50 IFN-α, human PBMC, ligand ODN2006-DOTAP, individual donors) greater than 10 µM. The IC50 (IC50 IFN-α, human PBMC, ligand ODN2216-Ig, individual donors) was greater than 10 µM, the IC50 (IC50 IL-6, human PBMC, ligand ODN2006-DOTAP, individual donors) was greater than 10 µM and the IC50 (IC50 IL-6, human PBMC, ligand ODN2216-Ig, individual donors) was greater than 10 µM. The IC50 (IC50 IL-6 Ave., human PBMC, ligand ODN2006-DOTAP, average of donors) was greater than 10 µM and the IC50 (IC50 IL-6 Ave., human PBMC, ligand ODN2216-Ig, average of donors) was greater than 10 µM.

In the case of `CCN(CCO)CCCC(C)Nc1ccnc2cc(Cl)ccc12` (stereo not drawn) [HCQ, hydroxychloroquine, reference compound], the IC50 (human PBMC, ligand ODN2006-DOTAP, average of donors, read-out: IC50 IFN-α Ave.) is reported as 3.02 µM, the IC50 (human PBMC, ligand ODN2006-DOTAP, average of donors, read-out: IC50 IL-6 Ave.) is reported as 1.72 µM and the IC50 (human PBMC, ligand ODN2006-DOTAP, individual donors, read-out: IC50 IFN-α) is reported as 0.91 µM and 4.1 µM and 3.1 µM and 3.96 µM. The IC50 (human PBMC, ligand ODN2006-DOTAP, individual donors, read-out: IC50 IL-6) was 1.2 µM and 1.24 µM and 1.54 µM and 2.4 µM and 1.58 µM and 2.37 µM, the IC50 (human PBMC, ligand ODN2216-Ig, average of donors, read-out: IC50 IFN-α Ave.) was 0.29 µM and the IC50 (human PBMC, ligand ODN2216-Ig, average of donors, read-out: IC50 IL-6 Ave.) was 2.38 µM. The IC50 (human PBMC, ligand ODN2216-Ig, individual donors, read-out: IC50 IFN-α) was 0.28 µM and 0.29 µM.
